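Results reflect a 48-hour exposure of cells in 96-well plates to compound at five concentrations. Abbreviation: GI50, concentration required for 50% inhibition of growth.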 Active and inactive are the calls of the source. No stated cut-off is given here; in the data, active = GI50 up to about 1.1 µM and inactive = higher. Some results are limits rather than exact numbers.

Some test systems named below: SF-295; TK-10; OVCAR-4; HCT-15; 786-0; CAKI-1; UACC-62; HL-60; OVCAR-8; SK-MEL-28; UO-31; OVCAR-3; EKVX; SK-OV-3; SNB-75; SNB-19; HCC 2998; SK-MEL-2; LOX IMVI.
Common to all, as to assay: NCI tumour cell line growth inhibition, 48 h

For `O=C(CC(=O)Nc1ccccc1O)Nc1ccccc1O`, the GI50 was 39 µM (inactive) in the assay with SF-295; 53 µM (inactive) in the assay with TK-10; 34.3 µM (inactive) in the assay with OVCAR-4; 5.68 µM in the assay with HCT-15; 19.6 µM (inactive) in the assay on 786-0; 68.1 µM (inactive) in the assay on CAKI-1. Moreover, the GI50 in the assay on UACC-62 was 3.24 µM (inactive); with HL-60, 1.83 µM (inactive); in the assay on OVCAR-8 it was 14.2 µM (inactive); in the assay with SK-MEL-28, 13.8 µM (inactive); in the assay on UO-31, 12.1 µM (inactive); in the assay on OVCAR-3 it was 14.9 µM (inactive). For the same compound, the GI50 with EKVX was > 100 µM (inactive); with SK-OV-3, > 100 µM (inactive); with SNB-75, 18.6 µM (inactive); in the assay with SNB-19 it was > 100 µM (inactive); with HCC 2998 it was 24.7 µM (inactive).

Take `O=[N+]([O-])c1ccccc1C1N2CCCCC2[C@@H]2c3[nH]c4ccccc4c3CCN12` (stereo partly specified): the GI50 in the assay on SF-295 is 13.8 µM (inactive); with TK-10, 16.5 µM (inactive); in the assay on OVCAR-4 it was 17.3 µM (inactive); in the assay with HCT-15 it was 10.9 µM; in the assay on 786-0, 16.1 µM (inactive); in the assay with CAKI-1, 14 µM (inactive). The GI50 in the assay with UACC-62 is 3.78 µM (inactive); in the assay on HL-60, 3.7 µM (inactive); in the assay on OVCAR-8, 16.8 µM (inactive); with SK-MEL-28, 13.7 µM (inactive); with UO-31 it was 11.3 µM (inactive); with OVCAR-3, 19.8 µM (inactive). Moreover, the GI50 is 20.7 µM (inactive) in the assay on EKVX, 17.9 µM (inactive) with SK-OV-3, 14.9 µM (inactive) in the assay on SNB-19 and 13.6 µM (inactive) with SK-MEL-2.

For the compound `CCOC(=O)c1ccc(/C(C)=N/NC(N)=S)cc1`, the GI50 in the assay with SF-295 is > 100 µM (inactive); in the assay on TK-10 it was > 100 µM (inactive); with OVCAR-4 it was > 100 µM (inactive); in the assay on HCT-15 it was over 100 µM; with 786-0, > 100 µM (inactive); in the assay with UACC-62, > 100 µM (inactive). Besides, the GI50 in the assay on HL-60 is > 100 µM (inactive); in the assay on OVCAR-8 it was > 100 µM (inactive); in the assay with LOX IMVI, > 100 µM (inactive); in the assay with SK-MEL-28, > 100 µM (inactive); in the assay with OVCAR-3, > 100 µM (inactive); with EKVX it was 2.74 µM (inactive). The GI50 with SK-OV-3, with SNB-75, with SNB-19 and with HCC 2998 was > 100 µM (inactive) throughout.

Turning to `CCOC(=O)NC(=O)c1cn(CCCOC(=O)CCCCCCCCCCC(=O)OCCCn2cc(C(=O)NC(=O)OCC)c(=O)[nH]c2=O)c(=O)[nH]c1=O`, the GI50 in the assay on SF-295, in the assay with TK-10, in the assay with OVCAR-4, in the assay on 786-0, in the assay on UACC-62 and in the assay on HL-60 was > 100 µM (inactive) in each case. Moreover, the GI50 with OVCAR-8, in the assay on LOX IMVI, with SK-MEL-28, in the assay on UO-31, in the assay on OVCAR-3 and in the assay on EKVX was > 100 µM (inactive) in each case. Also, the GI50 in the assay on SK-OV-3 is 42.7 µM (inactive); with SNB-19 it was 49 µM (inactive); with HCC 2998, > 100 µM (inactive); in the assay on SK-MEL-2, > 100 µM (inactive).

As for `O=[N+]([O-])C1Cc2ccccc2OC1c1ccccc1` (stereo unspecified), the GI50 in the assay with SF-295 was 40.5 µM (inactive); in the assay with TK-10, 77.1 µM (inactive); in the assay with OVCAR-4, > 100 µM (inactive); in the assay with 786-0 it was 35.3 µM (inactive); in the assay on CAKI-1, 24.1 µM (inactive); with UACC-62 it was 55.3 µM (inactive). Besides, the GI50 with HL-60 is 39.4 µM (inactive); in the assay on OVCAR-8, 89.7 µM (inactive); in the assay with LOX IMVI, 15.3 µM (inactive); in the assay with SK-MEL-28 it was 86.1 µM (inactive); in the assay with UO-31, > 100 µM (inactive); in the assay on OVCAR-3, > 100 µM (inactive). The GI50 in the assay with EKVX is > 100 µM (inactive); in the assay with SK-OV-3, 96.6 µM (inactive); in the assay with SNB-75, 19.9 µM (inactive); in the assay with SNB-19, 41.9 µM (inactive); with HCC 2998 it was > 100 µM (inactive).

Take `O=C(/C=C(\O)C(=O)O)/C=C(\O)c1ccccc1`: the GI50 with SF-295 was > 4.65 µM (inactive); in the assay with TK-10, > 4.65 µM (inactive); in the assay on OVCAR-4, > 4.65 µM (inactive); in the assay on HCT-15, over 4.65 µM; in the assay with 786-0 it was > 100 µM (inactive); in the assay on CAKI-1, > 4.65 µM (inactive). Besides, the GI50 in the assay with UACC-62 was > 4.65 µM (inactive); with HL-60 it was > 4.65 µM (inactive); in the assay with OVCAR-8, > 100 µM (inactive); in the assay with LOX IMVI it was > 4.65 µM (inactive); in the assay on OVCAR-3, > 4.65 µM (inactive); with EKVX, > 4.65 µM (inactive). For the same compound, the GI50 in the assay with SK-OV-3, in the assay on SNB-75, in the assay with SNB-19 and in the assay with SK-MEL-2 was > 4.65 µM (inactive) in each case.

With `CNc1ccc([N+](=O)[O-])c2c(NCCCN(C)C)ccnc12`, the GI50 in the assay on SF-295 was > 100 µM (inactive); in the assay with TK-10, > 100 µM (inactive); in the assay on OVCAR-4, > 100 µM (inactive); in the assay with HCT-15, over 100 µM; in the assay on 786-0, > 100 µM (inactive); in the assay with CAKI-1, > 100 µM (inactive). In addition, the GI50 in the assay on HL-60, in the assay on OVCAR-8, in the assay on LOX IMVI, in the assay with SK-MEL-28, with UO-31 and in the assay with OVCAR-3 was > 100 µM (inactive) throughout. Also, the GI50 in the assay with EKVX, with SK-OV-3, in the assay on SNB-19, in the assay on HCC 2998 and with SK-MEL-2 was > 100 µM (inactive) in each case.

Take `COC(=O)C(C(=O)C(=O)Nc1ccc([N+](=O)[O-])cc1)c1nc2cc(C)c(C)cc2nc1O` (stereo unspecified): the GI50 is > 100 µM (inactive) with SF-295; > 100 µM (inactive) in the assay on TK-10; > 100 µM (inactive) in the assay with OVCAR-4; over 100 µM in the assay on HCT-15; > 100 µM (inactive) in the assay with 786-0; > 100 µM (inactive) in the assay with CAKI-1. Moreover, the GI50 in the assay with UACC-62, in the assay on HL-60, with LOX IMVI, with SK-MEL-28, with UO-31 and in the assay on OVCAR-3 was > 100 µM (inactive) throughout. The GI50 with EKVX was > 100 µM (inactive); in the assay on SK-OV-3, > 100 µM (inactive); in the assay on SNB-75 it was > 100 µM (inactive); in the assay with SNB-19, > 100 µM (inactive); with HCC 2998, 81.3 µM (inactive).

For the compound `COC(=O)C1=C(c2ccc3c(c2)OCO3)OC(c2cc(OC)c(OC)c(OC)c2)C1` (stereo unspecified), the GI50 in the assay with SF-295 is 1.5 µM (inactive); with TK-10, 5.2 µM (inactive); with OVCAR-4, 4.83 µM (inactive); in the assay with HCT-15 it was 0.664 µM; in the assay on 786-0 it was 3.61 µM (inactive); in the assay on CAKI-1, 2.12 µM (inactive). Further, the GI50 in the assay on UACC-62 was 1.81 µM (inactive); in the assay with OVCAR-8, 4.17 µM (inactive); in the assay with LOX IMVI, 5.68 µM (inactive); with SK-MEL-28 it was > 100 µM (inactive); in the assay with UO-31, 8.26 µM (inactive); in the assay on OVCAR-3, 1.43 µM (inactive). The GI50 in the assay with EKVX was 2.82 µM (inactive); in the assay on SK-OV-3, 2.28 µM (inactive); with SNB-75 it was 2.72 µM (inactive); in the assay with SNB-19, 1.59 µM (inactive); in the assay with HCC 2998, 5.77 µM (inactive).

As to `c1ccc(C2N3CCCCC3[C@@H]3c4[nH]c5ccccc5c4CCN23)nc1` (stereo partly specified), the GI50 is > 100 µM (inactive) in the assay with SF-295; > 100 µM (inactive) in the assay with TK-10; > 100 µM (inactive) with OVCAR-4; over 100 µM in the assay with HCT-15; > 100 µM (inactive) in the assay with 786-0; > 100 µM (inactive) in the assay with CAKI-1. The GI50 in the assay with UACC-62 was 96.8 µM (inactive); in the assay with HL-60, 59.7 µM (inactive); in the assay on OVCAR-8, > 100 µM (inactive); in the assay on SK-MEL-28 it was > 100 µM (inactive); in the assay on UO-31 it was > 100 µM (inactive); with OVCAR-3, > 100 µM (inactive). In addition, the GI50 is > 100 µM (inactive) in the assay on EKVX; > 100 µM (inactive) in the assay on SK-OV-3; 68.7 µM (inactive) in the assay with SNB-75; > 100 µM (inactive) with SNB-19; > 100 µM (inactive) in the assay with SK-MEL-2.

`O=[N+]([O-])c1cccc(C(O)/C(=N/Nc2ccccc2)C2Nc3ccc([N+](=O)[O-])cc3N=C2O)c1` (stereo unspecified): the GI50 in the assay with SF-295 was 60.4 µM (inactive); in the assay with TK-10, > 100 µM (inactive); in the assay on OVCAR-4 it was 78.5 µM (inactive); in the assay with HCT-15, 14.4 µM; with 786-0, > 100 µM (inactive); in the assay with UACC-62 it was 17.4 µM (inactive). The GI50 is 10.8 µM (inactive) in the assay on HL-60; > 100 µM (inactive) in the assay on OVCAR-8; > 100 µM (inactive) in the assay with LOX IMVI; > 100 µM (inactive) in the assay with SK-MEL-28; 27.5 µM (inactive) with UO-31; 66.7 µM (inactive) in the assay with OVCAR-3. In addition, the GI50 is > 100 µM (inactive) with EKVX; > 100 µM (inactive) in the assay with SK-OV-3; 74 µM (inactive) with SNB-75; > 100 µM (inactive) in the assay with SNB-19; 33.4 µM (inactive) in the assay on HCC 2998; > 100 µM (inactive) with SK-MEL-2.

In the case of `O=C(c1ccccc1)c1ccc2cccc(O)c2n1`, the GI50 in the assay on SF-295 is 18.7 µM (inactive); with TK-10, 94.8 µM (inactive); in the assay on OVCAR-4 it was 67.8 µM (inactive); in the assay on HCT-15, 23.6 µM; in the assay with 786-0, 15.8 µM (inactive); with CAKI-1, 76.4 µM (inactive). The GI50 with UACC-62 was 33.1 µM (inactive); in the assay with OVCAR-8, 23.6 µM (inactive); in the assay with LOX IMVI it was 11.9 µM (inactive); in the assay with SK-MEL-28 it was 29.3 µM (inactive); in the assay with UO-31, 34.4 µM (inactive); in the assay with OVCAR-3 it was 50.8 µM (inactive). The GI50 was 24.4 µM (inactive) in the assay with EKVX; 30.5 µM (inactive) in the assay with SNB-75; 31.1 µM (inactive) in the assay on SNB-19; 40.1 µM (inactive) in the assay on HCC 2998; 47.6 µM (inactive) in the assay on SK-MEL-2.

For the origin of these results see ChEMBL document CHEMBL1201862, “PubChem BioAssay data set” (2004).
